Test results published in ChEMBL document CHEMBL5727253, “Tricyclic compounds and compositions as kinase inhibitors” (2019).
“And” between values parts separate entries of the source, which are not always exact repeats. Equal values may be shown once.

Assay: Biological Assays: The activity of a compound according to the present invention can be assessed by well-known in vitro & in vivo methods. […] CRAF cDNA was subcloned as full length protein, with Y340E and Y341E activating mutations, into a baculovirus expression vector for Sf9 insect cell expression. h14-3-3 zeta cDNA was subcloned into a baculovirus expression vector for SF9 insect cell expression. Sf9 cells co-expressing both proteins were lysed and subjected to immobilized nickel chromatography and eluted with Imidazole. A second column (StrepII binding column) was used and eluted with desthiobiotin. Protein Tags were removed using Prescission enzyme and the protein was further purified using a flowthrough step to remove tags.C-Raf TR refers to a truncated C-Raf protein, a Δ1-324 deletion mutant. C-Raf FL refers to the full-length C-Raf protein.Full length MEK1 with an inactivating K97R ATP binding site mutation is utilized as a RAF substrate. The MEK1 cDNA was subcloned with an N-terminal (his)6 tag into a vector for E. Coli expression. The MEK1 substrate was purified from E. Coli lysate by nickel affinity chromatography followed by anion exchange. The final MEK1 preparation was biotinylated (Pierce EZ-Link Sulfo-NHS-LC-Biotin) and concentrated.Assay Materials: Assay buffer is 50 mM Tris, pH 7.5, 15 mM MgCl2, 0.01% Bovine Serum Albumin (BSA) and 1 mM dithiothreitol (DTT); Stop buffer is 60 mM ethylenediaminetetraacetic acid (EDTA) and 0.01% Tween® 20; b-Raf (V600E), active; biotinylated Mek, kinase dead; Alpha Screen detection kit (available from PerkinElmer™, #6760617R); Anti phospho-MEK1/2 (available from Cell Signaling Technology, Inc. #9121); 384 well low volume assay plates (White Greiner® plates).Assay conditions: b-Raf (V600E) approximately 4 pM; c-Raf approximately 4 nM; biotinylated Mek, kinase dead approximately 10 nM; ATP 10 μM for BRAF (V600E) and 1 μM for CRAF; Pre-incubation time with compounds 60 minutes at room temperature; Reaction time 1 or 3 hours at room temperature.Assay protocol: Raf and biotinylated Mek (kinase dead) were combined at 2× final concentrations in assay buffer (50 mM Tris, pH 7.5, 15 mM MgCl2, 0.01% BSA and 1 mM DTT) and dispensed […] per well in assay plates (Greiner white 384 well assay plates #781207) containing […] of 40× of a Raf kinase inhibitor test compound diluted in 100% DMSO. The plate was incubated for 60 minutes at room temperature. The Raf kinase activity reaction was started by the addition of […] per well of 2×ATP diluted in assay buffer. After 3 hours (b-Raf(V600E)) or 1 hour (c-Raf). The reactions were stopped and the phosphorylated product was measured using a rabbit anti-p-MEK (Cell Signaling, #9121) antibody and the Alpha Screen IgG (ProteinA) detection Kit (PerkinElmer #6760617R), by the addition of […] to the well of a mixture of the antibody (1:2000 dilution) and detection beads (1:2000 dilution of both beads) in Stop/bead buffer (25 mM EDTA, 50 mM Tris, pH 7.5, 0.01% Tween20). The additions were carried out under dark conditions to protect the detection beads from light. A lid was placed on top of the plate and incubated for 1 hour at room temperature, after which the luminescence was read on a PerkinElmer Envision instrument.
Assay type: biochemical
In the case of `CC[C@H]1Cc2nnc(-c3cc(NC(=O)c4ccnc(C(C)(F)F)c4)ccc3C)cc2N2CCOC[C@H]12`, the IC50 is reported as 0.2 nM.
Compound `CC[C@H]1Cc2nnc(-c3cc(NC(=O)c4ccnc(C(C)(F)F)c4)ccc3C)cc2N2CCOC[C@@H]12` has an IC50 of 0.1 nM.
With `CC[C@@H]1Cc2nnc(-c3cc(NC(=O)c4ccnc(C(C)(F)F)c4)ccc3C)cc2N2CCOC[C@H]12` the IC50 was 0.1 nM.
`Cc1ccc(NC(=O)c2ccnc(C(C)(F)F)c2)cc1-c1ccc2c(c1)N1CCOC[C@H]1[C@@](C)(N)C2` gave an IC50 of 0.61 nM.
For `Cc1ncc(NC(=O)c2cccc(C(F)(F)F)c2)cc1-c1cnc2c(c1)N1CCOC[C@H]1[C@](F)(CO)C2`, the IC50 was 1.1 nM.
With `CNC(=O)C1Cc2ccc(-c3cc(NC(=O)c4ccnc(C(F)(F)F)c4)ccc3C)cc2N2CCOC[C@@H]12` (some centres not stated) the IC50 was 0.032 nM and 0.027 nM.
`Cc1ccc(NC(=O)c2ccnc(C(C)(F)F)c2)cc1-c1ccc2c(c1)N1CCOC[C@@H]1[C@](C)(N)C2` showed an IC50 of 0.025 nM.
In the case of `CNC(=O)C1Cc2ccc(-c3cc(NC(=O)c4ccnc(C(F)(F)F)c4)ccc3C)cc2N2CCOC[C@H]12` (some centres not stated), the IC50 is reported as 0.028 nM and 0.014 nM.
Work on `CNC(=O)[C@@H]1Cc2ccc(-c3cc(NC(=O)c4ccnc(C(F)(F)F)c4)ccc3C)cc2N2CCOC[C@H]12` yielded an IC50 of 0.13 nM.
With `Cc1ccc(NC(=O)c2ccnc(C(F)(F)F)c2)cc1-c1cnc2c(c1)N1CCOCC1[C@H](CO)C2` (mixture of isomers) the IC50 was 0.005 nM.
For `Cc1ccc(NC(=O)c2ccnc(C(F)(F)F)c2)cc1-c1cnc2c(c1)N1CCOCC1C(CS(C)(=O)=O)C2` (racemic), the IC50 was 0.038 nM.
With `Cc1ncc(NC(=O)c2cccc(C(F)(F)F)c2)cc1-c1ccc2c(c1)N1CCOCC1CC2O` (racemic) the IC50 was 0.01 nM.
